Patent US20250009742A1 (priority 2021, published 2025)
pEC50, pIC50: −log10 of the molar value. Where two headings read alike, the source gives them in different places.

Tests used:
Protein = Protein (Hepatitis B virus genotype D subtype ayw, UniProt P03146); test: Protein inhibition rate / EC50 (Table 1, no method described); format: biochemical
intracellular HBV DNA = test: Real-time PCR for intracellular HBV DNA in HepAD38 cells; format: cell-based; conditions: 65 hours treatment
[1] = Cell viability assay (EZ-Cytox), cytotoxicity; format: cell-based; conditions: human, HepAD38 cells; for viability at 65 h, 100 µM: read-out: Cytotoxicity % Livability (@100 μM)
Description: HepAD38 cells were cultured for 2 days in Dulbecco's Modified Eagle's medium (Welgene, LM001-05) supplemented with 10% FBS without tetracycline. […] After 65 hours of treatment, viability was measured using EZ-Cytox cell viability assay kit (Daeil Lab Service) according to the manufacturer's instructions. The absorbance was measured at 450 nm using a spectrophotometer (Spark, Tecan).

[2] = Hepatitis B virus, HePAD38, 65 h

Sequence of Protein (P03146 whole entry): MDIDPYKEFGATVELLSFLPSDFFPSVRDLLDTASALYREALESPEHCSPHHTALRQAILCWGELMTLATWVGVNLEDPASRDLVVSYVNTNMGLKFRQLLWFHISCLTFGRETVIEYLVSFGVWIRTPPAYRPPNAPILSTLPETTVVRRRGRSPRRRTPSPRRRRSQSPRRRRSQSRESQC

| Structure (SMILES) | pEC50 (Protein) | pIC50 (intracellular HBV DNA; read-out: IC50) | inhibition at 30 µM (Protein) | pIC50 (intracellular HBV DNA; [2]) | CC50 at 65 h [1] | viability at 65 h, 100 µM [1] |
| --- | --- | --- | --- | --- | --- | --- |
| O=C(Nc1cc(F)c(F)c(F)c1)c1ccc(F)c(S(=O)(=O)N2CCC(O)CC2)c1 [NVR, reference compound] | 5.44 | 6.47 | – | – | – | – |
| COc1ccc(N(Cc2cc(OC)[nH]n2)C(=O)Nc2ccc(F)c(Cl)c2)cn1 [Example 64, 3-(3-chloro-4-fluorophenyl)-1-((5-methoxy-1H-pyrazol-3-yl)methyl)-1-(6-methoxypyridin-3-yl)urea] | 5.24 | – | 91.1% | 6.74 | > 100000 nM | 100% |
| COc1ccc(N(Cc2n[nH]c3c2CC(C(=O)O)CC3)C(=O)Nc2ccc(F)c(Cl)c2)cn1 (stereo not drawn) [Example 52, 3-((3-(3-chloro-4-fluorophenyl)-1-(6-methoxypyridin-3-yl)ureido)methyl)-4,5,6,7-tetrahydro-1H-indazole-5-carboxylic acid] | – | – | 4% | < 5.96 | > 100000 nM | 100% |
| O=C(Nc1ccc(F)c(Cl)c1)N(Cc1n[nH]c2c1CCCC2)c1cc[nH]c(=O)c1 [Example 15, 3-(3-chloro-4-fluorophenyl)-1-(2-oxo-1,2-dihydropyridin-4-yl)-1-((4,5,6,7-tetrahydro-1H-indazol-3-yl)methyl)urea] | 5.85 | – | 64.7% | 6.51 | > 100000 nM | 84% |
| COc1cc(OC)cc(N(Cc2n[nH]c3c2CCCC3)C(=O)Nc2ccc(F)c(Cl)c2)c1 [Example 117, 3-(3-chloro-4-fluorophenyl)-1-(3,5-dimethoxyphenyl)-1-((4,5,6,7-tetrahydro-1H-indazol-3-yl)methyl)urea] | – | – | 7% | < 5.96 | > 33000 nM | 3.2% |
| COc1ccc(N(Cc2cn(C)nc2C)C(=O)Nc2ccc(F)c(Cl)c2)cc1 [Example 159, 3-(3-chloro-4-fluorophenyl)-1-((1,3-dimethyl-1H-pyrazol-4-yl)methyl)-1-(4-methoxyphenyl)urea] | – | – | 4% | < 5.48 | – | – |
| COc1ccc(N(Cc2cc(C)nn2C)C(=O)Nc2ccc(F)c(Cl)c2)cc1 [Example 108, 3-(3-chloro-4-fluorophenyl)-1-((1,3-dimethyl-1H-pyrazol-5-yl)methyl)-1-(4-methoxyphenyl)urea] | 5.28 | – | 89.9% | 6.44 | – | – |
| COc1cc(N(Cc2cc(C(F)F)[nH]n2)C(=O)Nc2ccc(F)c(C(F)F)c2)cnn1 [Example 201, 1-((5-(difluoromethyl)-1H-pyrazol-3-yl)methyl)-3-(3-(difluoromethyl)-4-fluorophenyl)-1-(6-methoxypyridazin-4-yl)urea] | – | – | – | 7.55 | > 100000 nM | 107% |
| COc1ncc(N(Cc2cc(C#N)[nH]n2)C(=O)Nc2cc(F)c(F)c(F)c2)cn1 [Example 223, 1-((5-cyano-1H-pyrazol-3-yl)methyl)-1-(2-methoxypyrimidin-5-yl)-3-(3,4,5-trifluorophenyl)urea] | – | – | – | 7.15 | > 100000 nM | 87.5% |
| O=C(Nc1ccc(F)c(Cl)c1)N(Cc1n[nH]c2c1CCCO2)c1ccon1 [Example 136, 3-(3-chloro-4-fluorophenyl)-1-(isoxazol-3-yl)-1-((1,4,5,6-tetrahydropyrano[2,3-c]pyrazol-3-yl)methyl)urea] | – | – | – | 7.32 | 64000 nM | 7.3% |
| COc1ncc(N(Cc2cc(C#N)[nH]n2)C(=O)Nc2ccc(C#N)c(Cl)c2)cn1 [Example 9] | – | – | – | 6.51 | > 100000 nM | 105% |
| COc1ncc(N(Cc2cc(C(F)(F)F)[nH]n2)C(=O)Nc2cccc(C(F)F)c2)cn1 [Example 176, 3-(3-(difluoromethyl)phenyl)-1-(2-methoxypyrimidin-5-yl)-1-((5-(trifluoromethyl)-1H-pyrazol-3-yl)methyl)urea] | – | – | – | 7.44 | > 100000 nM | 53.5% |
| COc1ncc(N(Cc2cc(C(F)(F)F)[nH]n2)C(=O)Nc2cc(F)c(F)c(F)c2)cn1 [Example 219, 1-(2-methoxypyrimidin-5-yl)-1-((5-(trifluoromethyl)-1H-pyrazol-3-yl)methyl)-3-(3,4,5-trifluorophenyl)urea] | – | – | – | 7.92 | > 100000 nM | 53.7% |
| COc1ncc(N(Cc2cc(C(F)(F)F)[nH]n2)C(=O)Nc2cc(C)c(F)c(Cl)n2)cn1 [Example 142, 3-(6-chloro-5-fluoro-4-methylpyridin-2-yl)-1-(2-methoxypyrimidin-5-yl)-1-((5-(trifluoromethyl)-1H-pyrazol-3-yl)methyl)urea] | – | – | – | 7.00 | 46900 nM | 21% |
| COc1cc(N(Cc2n[nH]c3c2COCC3)C(=O)Nc2ccc(F)c(Cl)c2)ccn1 [Example 73, 3-(3-chloro-4-fluorophenyl)-1-(2-methoxypyridin-4-yl)-1-((1,4,6,7-tetrahydropyrano[4,3-c]pyrazol-3-yl)methyl)urea] | – | – | – | 7.72 | > 100000 nM | 96.6% |
| COc1ccc(N(Cc2cc(C(F)(F)F)[nH]n2)C(=O)Nc2ccc(F)c(F)c2)cn1 [Example 168, 3-(3,4-difluorophenyl)-1-(6-methoxypyridin-3-yl)-1-((5-(trifluoromethyl)-1H-pyrazol-3-yl)methyl)urea] | – | – | – | 7.14 | > 100000 nM | 59.8% |
| COc1ncc(N(Cc2cc(C(F)(F)F)[nH]n2)C(=O)Nc2cnc(F)nc2)cn1 [Example 186, 3-(2-fluoropyrimidin-5-yl)-1-(2-methoxypyrimidin-5-yl)-1-((5-(trifluoromethyl)-1H-pyrazol-3-yl)methyl)urea] | – | – | – | < 5.96 | > 100000 nM | 86.4% |
| COc1ccc(N(Cc2cc(C(F)F)[nH]n2)C(=O)Nc2ccc(F)c(C(F)F)c2)nn1 [Example 195, 1-((5-(difluoromethyl)-1H-pyrazol-3-yl)methyl)-3-(3-(difluoromethyl)-4-fluorophenyl)-1-(6-methoxypyridazin-3-yl)urea] | – | – | – | < 5.96 | > 100000 nM | 100% |
| N#Cc1ccc(N(Cc2cc(C(F)(F)F)[nH]n2)C(=O)Nc2ccc(F)c(Cl)c2)cn1 [Example 130, 3-(3-chloro-4-fluorophenyl)-1-(6-cyanopyridin-3-yl)-1-((5-(trifluoromethyl)-1H-pyrazol-3-yl)methyl)urea] | – | – | – | 7.19 | > 100000 nM | 68% |
| COc1cc(N(Cc2n[nH]c3c2OCCO3)C(=O)Nc2ccc(F)c(Cl)c2)ccn1 [Example 71, 3-(3-chloro-4-fluorophenyl)-1-((5,6-dihydro-1H-[1,4]dioxino[2,3-c]pyrazol-3-yl)methyl)-1-(2-methoxypyridin-4-yl)urea] | – | – | – | 7.12 | > 100000 nM | – |
| N#Cc1cc(N(Cc2n[nH]c3c2CCCO3)C(=O)Nc2ccc(F)c(Cl)c2)ccn1 [Example 122, 3-(3-chloro-4-fluorophenyl)-1-(2-cyanopyridin-4-yl)-1-((1,4,5,6-tetrahydropyrano[2,3-c]pyrazol-3-yl)methyl)urea] | – | – | – | 6.46 | > 100000 nM | – |
| COc1ncc(N(Cc2cc(C(F)F)[nH]n2)C(=O)Nc2cccc(C(F)F)c2)cn1 [Example 178, 1-((5-(difluoromethyl)-1H-pyrazol-3-yl)methyl)-3-(3-(difluoromethyl)phenyl)-1-(2-methoxypyrimidin-5-yl)urea] | – | – | – | 7.66 | > 100000 nM | 68.5% |
| COc1ncc(N(Cc2cc(C(F)(F)F)[nH]n2)C(=O)Nc2cc(F)ccn2)cn1 [Example 187, 3-(4-fluoropyridin-2-yl)-1-(2-methoxypyrimidin-5-yl)-1-((5-(trifluoromethyl)-1H-pyrazol-3-yl)methyl)urea] | – | – | – | < 5.96 | > 100000 nM | – |
| COc1ccc(N(Cc2cc(C(F)(F)F)[nH]n2)C(=O)Nc2ccc(F)c(Cl)c2)nn1 [Example 96, 3-(3-chloro-4-fluorophenyl)-1-(6-methoxypyridazin-3-yl)-1-((5-(trifluoromethyl)-1H-pyrazol-3-yl)methyl)urea] | – | – | – | < 5.96 | > 100000 nM | 93.4% |
| CC(C)(O)c1cc(N(Cc2n[nH]c3c2CCCO3)C(=O)Nc2ccc(F)c(Cl)c2)on1 [Example 109, 3-(3-chloro-4-fluorophenyl)-1-(3-(2-hydroxypropan-2-yl)isoxazol-5-yl)-1-((1,4,5,6-tetrahydropyrano[2,3-c]pyrazol-3-yl)methyl)urea] | – | – | – | 6.82 | > 100000 nM | 82% |
| COc1ncc(N(Cc2cc(C(F)F)[nH]n2)C(=O)Nc2cccc(C(F)F)n2)cn1 [Example 179, 1-((5-(difluoromethyl)-1H-pyrazol-3-yl)methyl)-3-(6-(difluoromethyl)pyridin-2-yl)-1-(2-methoxypyrimidin-5-yl)urea] | – | – | – | 6.15 | > 100000 nM | 79.3% |
| COc1ncc(N(Cc2n[nH]c(C(F)(F)F)c2Br)C(=O)Nc2ccc(F)c(C(F)F)c2)cn1 [Example 194, 1-((4-bromo-5-(trifluoromethyl)-1H-pyrazol-3-yl)methyl)-3-(3-(difluoromethyl)-4-fluorophenyl)-1-(2-methoxypyrimidin-5-yl)urea] | – | – | – | 7.68 | > 100000 nM | – |
| COc1ncc(N(Cc2cc(C(F)(F)F)[nH]n2)C(=O)Nc2cc(N(C)C)c(F)c(Cl)n2)cn1 [Example 138, 3-(6-chloro-4-(dimethylamino)-5-fluoropyridin-2-yl)-1-(2-methoxypyrimidin-5-yl)-1-((5-(trifluoromethyl)-1H-pyrazol-3-yl)methyl)urea] | – | – | – | < 5.96 | > 100000 nM | 71.9% |
